This passage reports IC50 results from patent US12371454B2, “Cyclic peptide compound having Kras inhibitory action” (priority 2019, dated 2025).

Structures are written as SMILES. Starred links: 1 amine or outer side, 2 acyl side, 3 side chain; linkers in the order of their positions; H or OH if unused. Positions of bridges follow the written chain, without caps; N, C: chain ends. Non-standard residues stand in square brackets, D forms with d. Residues, ends and D or L forms follow the SMILES beside them. *: point of attachment. hPhe(3-Cl-4-CF3) = N[C@@H](CCc1ccc(C(F)(F)F)c(Cl)c1)C(=O)O; hPhe(3-F,4-CF3) = N[C@@H](CCc1ccc(C(F)(F)F)c(F)c1)C(=O)O; NMePhe(4-CF3) = CN[C@@H](Cc1ccc(C(F)(F)F)cc1)C(=O)O; NMePhe(3,4-F2) = CN[C@@H](Cc1ccc(F)c(F)c1)C(=O)O; NMePhe(4-Cl) = CN[C@@H](Cc1ccc(Cl)cc1)C(=O)O; NMePhe(4-Me) = CN[C@@H](Cc1ccc(C)cc1)C(=O)O; NMeNle(6-CHF2) = CN[C@@H](CCCCC(F)F)C(=O)O; NMePhe(3-F) = CN[C@@H](Cc1cccc(F)c1)C(=O)O; NMedβ3hAla = C[C@H](CC(=O)[*:2])N(C)[*:1]; Leu(4,5-dehydro) = C=C(C)C[C@H](N)C(=O)O; NMeGly(cPent) = CN[C@H](C(=O)O)C1CCCC1; Phe(3-I) = N[C@@H](Cc1cccc(I)c1)C(=O)O; X70 = CC(C)(O)COCCN(CC(=O)[*:2])[*:1]; NMeCha = CN[C@@H](CC1CCCCC1)C(=O)O; NMeChg = CN[C@H](C(=O)O)C1CCCCC1; NMeD = CN[C@@H](CC(=O)O)C(=O)O; NMeL = CN[C@@H](CC(C)C)C(=O)O; NMeV = CN[C@H](C(=O)O)C(C)C; d(β3hA) = C[C@@H](N)CC(=O)O; NMeA = CN[C@@H](C)C(=O)O; NMeAib = CNC(C)(C)C(=O)O; Piperidide = C1CCN(*)CC1; Pyrrolidide = C1CCN(*)C1; dNMeA = CN[C@H](C)C(=O)O; Ac5c = NC1(C(=O)O)CCCC1; Aze = O=C(O)[C@@H]1CCN1; Aib = CC(C)(N)C(=O)O; Isopentyl = CC(C)CC*; Sar = CNCC(=O)O

The target in the assay is T1, Kras and SOS1 (biotin-tagged human Kras loaded with GDP, His-tagged human SOS1) (Homo sapiens, UniProt P01116, G12D).
T1 construct: made in house; host or cells: E. coli (stated for Kras only)
T1 sequence (P01116 1-188 isoform P01116-2 G12D): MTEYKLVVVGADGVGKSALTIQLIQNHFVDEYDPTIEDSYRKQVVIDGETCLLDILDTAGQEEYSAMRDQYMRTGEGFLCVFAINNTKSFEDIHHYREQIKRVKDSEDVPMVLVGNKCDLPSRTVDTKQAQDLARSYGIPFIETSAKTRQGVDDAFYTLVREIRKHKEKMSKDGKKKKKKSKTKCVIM
Description: Protein-protein interaction inhibition between Kras and SOS1 (KrasGl2D-SOS PPI) using AlphaScreen. The format is binding. The following applies: AlphaScreen; biotin-tagged human Kras loaded with GDP, His-tagged human SOS1; read-out: KRAS G12D-SOS PPI IC50. The method, boiled down:
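AlphaScreen format: Ni donor beads capture His-SOS1, streptavidin acceptor beads capture biotinylated Kras (E. coli-expressed, GDP-loaded post-purification). Excite 680 nm, read 520-620 nm.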
Background: Alpha assays give light when donor and acceptor beads are brought close together.
As for `CC[C@H](C)[C@@H]1NC(=O)[C@H](CC(C)C)N(C)C(=O)C[C@@H](C)N(C)C(=O)[C@H](CC(C)C)NC(=O)C(C)(C)N(C)C(=O)[C@H](CC(C)C)NC(=O)[C@H](CCc2ccc(C(F)(F)F)c(Cl)c2)NC(=O)CN(C)C(=O)[C@H](Cc2ccc(C(F)(F)F)cc2)N(C)C(=O)[C@@H]2CCN2C(=O)CN(C)C1=O` [Compound 1403] (cyclo([Aze][NMePhe(4-CF3)][Sar][hPhe(3-Cl-4-CF3)]L[NMeAib]L[NMedβ3hAla][NMeL]I[Sar])), the IC50 was 32 nM.

As to `CC[C@H](C)[C@@H]1NC(=O)[C@H](CC(C)C)N(C)C(=O)C[C@@H](C(=O)N(C)C)N(C)C(=O)[C@H](C2CCCC2)N(C)C(=O)C2(CCCC2)NC(=O)CN(CCOCC(C)(C)O)C(=O)[C@H](CCc2ccc(C(F)(F)F)c(Cl)c2)NC(=O)CN(C)C(=O)[C@H](CC2CCCCC2)N(C)C(=O)[C@@H]2CCN2C(=O)[C@H](C)N(C)C1=O` [Compound 2023] ([NMeL]I[NMeA][Aze][NMeCha][Sar][hPhe(3-Cl-4-CF3)][X70][Ac5c][NMeGly(cPent)][NMeD]-NMe2; lactam N-11), the IC50 came to 1.7 nM.

As to `CC[C@H](C)[C@@H]1NC(=O)[C@H](CC(C)C)N(C)C(=O)C[C@@H](C)NC(=O)[C@H](C(C)C)N(C)C(=O)C2(CCCC2)NC(=O)[C@@H]2CCCN2C(=O)[C@H](CCc2ccc(C(F)(F)F)c(Cl)c2)NC(=O)CN(C)C(=O)[C@H](Cc2cccc(F)c2)N(C)C(=O)CN(C)C(=O)CN(C)C1=O` [Compound 1556] (cyclo([Ac5c][NMeV][d(β3hA)][NMeL]I[Sar][Sar][NMePhe(3-F)][Sar][hPhe(3-Cl-4-CF3)]P)), the IC50 turned out to be 17 nM.

Consider `CC[C@H](C)[C@@H]1NC(=O)[C@H](CC(C)C)N(C)C(=O)C[C@@H](C(=O)N2CCCCC2)N(C)C(=O)[C@H](CC(C)C)NC(=O)C(C)(C)N(C)C(=O)[C@H](Cc2ccc(OC)cc2)NC(=O)[C@H](Cc2cccc(I)c2)NC(=O)CN(C)C(=O)[C@H](CC2CCCCC2)N(C)C(=O)[C@@H]2CCN2C(=O)[C@H](C)N(C)C1=O` [Compound 169] ([NMeL]I[NMeA][Aze][NMeCha][Sar][Phe(3-I)]Y(Me)[NMeAib]L[NMeD]-Piperidide; lactam N-11), for which the IC50 was 16 nM.

`C=C(C)C[C@@H]1NC(=O)[C@H](Cc2cccc(I)c2)NC(=O)CN(C)C(=O)[C@H](Cc2ccc(Cl)cc2)N(C)C(=O)CN(C)C(=O)CN(C)C(=O)[C@H]([C@@H](C)CC)NC(=O)[C@H](CC(C)C)N(C)C(=O)C[C@@H](C(=O)N2CCCCC2)N(C)C(=O)[C@H](CC(C)C)NC(=O)C(C)(C)N(C)C1=O` [Compound 1421] ([NMeL]I[Sar][Sar][NMePhe(4-Cl)][Sar][Phe(3-I)][Leu(4,5-dehydro)][NMeAib]L[NMeD]-Piperidide; lactam N-11): the IC50 is 32 nM.

Consider `CC[C@H](C)[C@@H]1NC(=O)[C@H](CC(C)C)N(C)C(=O)C[C@@H](C(=O)N2CCCC2)NC(=O)[C@H](CC(C)C)N(C)C(=O)C(C)(C)NC(=O)[C@H](CC(C)C)N(C)C(=O)[C@H](CCc2ccc(C(F)(F)F)c(F)c2)NC(=O)CN(C)C(=O)[C@H](CCCCC(F)F)N(C)C(=O)CN(C)C(=O)CN(C)C1=O` [Compound 1455] ([NMeL]I[Sar][Sar][NMeNle(6-CHF2)][Sar][hPhe(3-F,4-CF3)][NMeL][Aib][NMeL]D-Pyrrolidide; lactam N-11), for which the IC50 stood at 30 nM.

Turning to `CC[C@H](C)[C@@H]1NC(=O)[C@H](CC(C)C)N(C)C(=O)C[C@@H](C)NC(=O)[C@H](C2CCCC2)N(C)C(=O)C2(CCCC2)NC(=O)[C@@H]2CCCN2C(=O)[C@H](CCc2ccc(C(F)(F)F)c(Cl)c2)NC(=O)[C@H]2CCCN2C(=O)[C@H](Cc2ccc(C)cc2)N(C)C(=O)CN(C)C(=O)CN(C)C1=O` [Compound 1487] (cyclo([Ac5c][NMeGly(cPent)][d(β3hA)][NMeL]I[Sar][Sar][NMePhe(4-Me)][dP][hPhe(3-Cl-4-CF3)]P)), the IC50 is 340 nM.

`CC(C)CCOC[C@@H]1NC(=O)[C@H](CC(C)C)N(C)C(=O)C[C@@H](C(=O)N2CCCCC2)N(C)C(=O)[C@H](C2CCCCC2)N(C)C(=O)C2(CCCC2)NC(=O)[C@@H]2CCCN2C(=O)[C@H](CCc2ccc(C(F)(F)F)c(Cl)c2)NC(=O)CN(C)C(=O)[C@H](CC2CCCCC2)N(C)C(=O)CN(C)C(=O)CN(C)C1=O` [Compound 794] ([NMeL]S(Isopentyl)[Sar][Sar][NMeCha][Sar][hPhe(3-Cl-4-CF3)]P[Ac5c][NMeChg][NMeD]-Piperidide; lactam N-11): the concentration for half-maximal inhibition (IC50) came out at 11 nM.

As for `CC[C@H](C)[C@@H]1NC(=O)[C@H](C)N(C)C(=O)C[C@@H](C)NC(=O)[C@H](C2CCCC2)N(C)C(=O)C2(CCCC2)NC(=O)[C@@H]2CCCN2C(=O)[C@H](CCc2ccc(C(F)(F)F)c(Cl)c2)NC(=O)[C@@H](C)N(C)C(=O)[C@H](Cc2ccc(F)c(F)c2)N(C)C(=O)CN(C)C(=O)CN(C)C1=O` [Compound 1075] (cyclo([Ac5c][NMeGly(cPent)][d(β3hA)][NMeA]I[Sar][Sar][NMePhe(3,4-F2)][dNMeA][hPhe(3-Cl-4-CF3)]P)), the IC50 stood at 140 nM.

For orientation: IC50 means the midpoint of a concentration-inhibition curve.
